Results as given in patent US7563818B2, “Photosensitizer functionalised nanoparticles” (Cancer Research Technology Limited, priority 2001, dated 2009).
Where two headings read alike, the source gives them in different places.

Tests used:
[1] = Solubility in polar solvents; type: physicochemical; conditions: polar solvents (e.g. ethanol, methanol, DMSO)
Text: Transmission electron micrographs of the Pc-gold nanoparticles are consistent with those reported by several groups for other thiol-stabilized MPCs in that they show small, 2-4 nm, non-aggregated particles—FIG. 2. […] A similar change in solubility was recently reported by Imahori et al.^23 for a porphyrin self-assembled on gold nanoparticles used as an artificial photosynthetic material.

[2] = Singlet oxygen quantum yield, method of Nonell and Braslavsky; type: physicochemical; conditions: for Increase in ΦΔ: addition of 1 mM TOAB to the free Pc
Method: Singlet oxygen quantum yields, ΦΔ, for both the free and bound Pc were determined (Table 1) using the method of Nonell and Braslavsky.^24 The Pc coated nanoparticles were referenced to perinapthenone in ethanol (ΦΔ=0.97)^25, whilst free Pc was referenced to perinapthenone and octa-decyl zinc phthalocyanine^17 in toluene (ΦΔ=1.0 and 0.7 respectively). After deoxygenation of the Pc samples no singlet oxygen could be detected. […] The value of ΦΔ of 0.45 for the free Pc in toluene is consistent with previous measurements of similar metallated Pcs.^26

[3] = Fluorescence lifetime by time-correlated single photon counting; type: physicochemical
Text: Fluorescence lifetime (τ) measurements were obtained by using the method of time-correlated single photon counting. For both the free and bound phthalocyanine optimum fits (X2) were obtained for the double exponential and τ1 and τ2 values are shown in table 1.

[4] = cited from earlier work
[5] = double exponential fit, free Pc in toluene, Pc-nanoparticles in ethanol
[6] = in toluene with addition of 1 mM TOAB

Compound	Solubility in polar solvents [1]	Increase in ΦΔ [2]	Increase in ΦΔ ([2]; listed as free phthaloyanine)	φΔ singlet oxygen quantum yield ([2]; free Pc in toluene, Pc-nanoparticles in ethanol, referenced to perinapthenone (and octa-decyl zinc phthalocyanine for free Pc))	τ1 (yield) [3, 5]	τ1 fluorescence lifetime [3, 5]	τ2 (yield) [3, 5]	τ2 fluorescence lifetime [3, 5]	τ1 (yield) [3, 6]	τ1 fluorescence lifetime [3, 6]	τ2 (yield) [3, 6]	τ2 fluorescence lifetime [3, 6]	ΦΔ singlet oxygen quantum yield of reference ([4]; in ethanol)	ΦΔ singlet oxygen quantum yield of reference ([4]; in toluene)
CCCCCCc1ccc(CCCCCC)c2c1-c1nc3nc(nc4[nH]c(nc5[nH]c(nc-2n1)c1c(CCCCCC)ccc(CCCCCC)c51)c1c(CCCCCC)ccc(CCCCCC)c41)-c1c(C)ccc(CCCCCCCCCCCS)c1-3 [Free Pc, 1,4,8, 11, 15, 18-hexahexyl-22-(11-mercaptoundecyl)-25-methyl phthalocyanine]	insoluble	ca. 10%	about 10%	0.45	91%	2.1 ns	9%	1.11 ns	76%	0.7 ns	24%	1.7 ns		
O=C1C=Cc2cccc3cccc1c23 [perinapthenone]													0.97	1.0
octa-decyl zinc phthalocyanine														0.7
